Data as given in paper PMC6212553, “Baicalein Enhances the Oral Bioavailability and Hepatoprotective Effects of Silybin Through the Inhibition of Efflux Transporters BCRP and MRP2” (Frontiers in Pharmacology, 2018).

Assay: Stability of SBA and SBB in plasma QC samples
Format: in vitro ADME, rat
Conditions: three freeze–thaws, long-term, short-term, post-preparative
Method: Next, we wanted to investigate the effect of baicalein on the PKs of silybin in vivo. A validated analytical method for the determination of silybin and its total conjugates in rat plasma by LC-MS was developed based on a previous report with minor modifications ([Yuan et al., 2017]). […] The results of precision and accuracy for intra- and inter-day evaluation are presented in Supplementary Table S2. The lower limit of quantification (LLOQ) was 5 ng/ml with relative standard deviation (RSD) ≤6.4%. The RSD values of quality control (QC) samples examined for precision were within 6.4%, while the accuracy ranged from 91.7 to 109.5%. It can be seen from Supplementary Table S2 that the extraction recoveries of silybin A and B were above 84.4% in plasma. Stability of SBA and SBB in plasma was also tested using QC samples at four different concentrations in the stability tests of three freeze–thaws, long-term, short-term, and post-preparative.
S. Table 1.Calibration curves for determination of S Ba, and S Bb in plasm a samples.
Cpd. Standard curv es R2 R ange
S. Table 2.P recision,accurac y and recover y for determination of S Ba, and S Bb in […]
S. Table 3. Stabilit y t esting results for determination of SBa, and S Bb in plasma […]
Initial a Freeze- thaw b Short-t e r m b Long- t e r m b Post-Prep. b […]
a. Contents of silybin and tangeretin in the freshly prepared QC samples. b. […]

| stability in plasma | SMILES |
| --- | --- |
| without significant loss | COc1cc([C@H]2Oc3cc([C@H]4Oc5cc(O)cc(O)c5C(=O)[C@@H]4O)ccc3O[C@@H]2CO)ccc1O [silybin A] |
| without significant loss | COc1cc([C@@H]2Oc3cc([C@H]4Oc5cc(O)cc(O)c5C(=O)[C@@H]4O)ccc3O[C@H]2CO)ccc1O [silybin B] |
